Test results reported in US20260027116A1, “Methods of Treating Chronic Graft-Versus-Host Disease Following Allogeneic Hematopoietic Stem Cell Transplantation” (Kadmon Corporation, LLC, priority 2022, published 2026).

Experiments:
[1] = Example 1: plasma pharmacokinetics (Cmax, Tmax, AUC0-6 hr) of belumosudil and metabolites; assay type: in vivo, human; conditions: for AUC0-6 hr, Geometric Mean (Geometric Coefficient of Variation): plasma
Procedure: Cmax was the maximum observed plasma concentration, obtained by a non-compartmental analysis. […] Timeframe: Cycles 1 and 2: pre-dose (0 hour), 1, 2, 3, 4, 5, and 6 hours post-dose on Day 1. […] Here, ‘number analyzed’=participants with available data for each specified category.
Tmax was defined as time to reach maximum observed plasma concentration, obtained by a non-compartmental analysis. […] Timeframe: Cycles 1 and 2: pre-dose (0 hour), 1, 2, 3, 4, 5, and 6 hours post-dose on Day 1. Analysis was performed on PK population. Here, ‘number analyzed’=participants with available data for each specified category.
AUC0-6 hr was defined as area under the plasma concentration versus time curve from time 0 to 6 hours post-dose, obtained by a non-compartmental analysis from the concentration-time data. […] Timeframe: Cycles 1 and 2: pre-dose (0 hour), 1, 2, 3, 4, 5, and 6 hours post-dose on Day 1. Analysis was performed on PK population. Here, ‘number analyzed’=participants with available data for each specified category.

[2] = system: chronic graft-versus-host disease (cGVHD); experiment: Example 2 phase II randomized study: response per 2014 NIH criteria (best ORR, DOR, TTR, FFS, OS); assay type: in vivo, human; conditions: for ORR / ORR for responses occurring within 6 mo of treatment / ORR for responses occurring within 12 mo of treatment: mITT
Procedure: All responses were assessed by the study site investigators.
Here, we report data from the 12-month analysis.

[3] = responses within 6 mo of treatment, 200 mg daily (n = 66)
[4] = responses within 6 mo of treatment, 200 mg twice daily (n = 66)
[5] = responses within 6 mo of treatment, Total (N = 132)
[6] = responses within 12 mo of treatment, 200 mg daily (n = 66)
[7] = responses within 12 mo of treatment, 200 mg twice daily (n = 66)
[8] = responses within 12 mo of treatment, Total (N = 132)

## CC(C)NC(=O)COc1cccc(-c2nc(Nc3ccc4[nH]ncc4c3)c3ccccc3n2)c1 [Belumosudil, 2-{3-[4-(1H-indazol-5-ylamino)-2-quinazolinyl]phenoxy}-N-(propan-2-yl) acetamide]
[1]; Cycle 1 Day 1, Cohort 1, belumosudil 200 mg QD
  Cmax, geometric mean (geometric CV): 2500 nanograms per milliliter
[1]; Cycle 1 Day 1, Cohort 2, belumosudil 200 mg BID
  Cmax, geometric mean (geometric CV): 1400 nanograms per milliliter
[1]; Cycle 1 Day 1, Cohort 3, belumosudil 400 mg QD
  Cmax, geometric mean (geometric CV): 2960 nanograms per milliliter
[1]; Cycle 2 Day 1, Cohort 1, belumosudil 200 mg QD
  Cmax, geometric mean (geometric CV): 2020 nanograms per milliliter
[1]; Cycle 2 Day 1, Cohort 2, belumosudil 200 mg BID
  Cmax, geometric mean (geometric CV): 1890 nanograms per milliliter
[1]; Cycle 2 Day 1, Cohort 3, belumosudil 400 mg QD
  Cmax, geometric mean (geometric CV): 3270 nanograms per milliliter
[1]; Belumosudil 200 mg BID, Cycle 1 Day 1
  AUC0-6 hr, Geometric Mean (Geometric Coefficient of Variation): 4960 hours*nanograms per milliliter
[1]; Belumosudil 200 mg BID, Cycle 2 Day 1
  AUC0-6 hr, Geometric Mean (Geometric Coefficient of Variation): 7190 hours*nanograms per milliliter
[1]; Belumosudil 200 mg QD, Cycle 1 Day 1
  AUC0-6 hr, Geometric Mean (Geometric Coefficient of Variation): 8350 hours*nanograms per milliliter
[1]; Belumosudil 200 mg QD, Cycle 2 Day 1
  AUC0-6 hr, Geometric Mean (Geometric Coefficient of Variation): 7090 hours*nanograms per milliliter
[1]; Belumosudil 400 mg QD, Cycle 1 Day 1
  AUC0-6 hr, Geometric Mean (Geometric Coefficient of Variation): 11500 hours*nanograms per milliliter
[1]; Belumosudil 400 mg QD, Cycle 2 Day 1
  AUC0-6 hr, Geometric Mean (Geometric Coefficient of Variation): 12000 hours*nanograms per milliliter
[2]; 200 mg BID
  CR, Esophagus: 5 (42) n (%)
  CR, Eyes: 6 (12) n (%)
  CR, Joints and fascia: 10 (20) n (%)
  CR, Liver: 2 (50) n (%)
  CR, Lower GI: 4 (57) n (%)
  CR, Lungs: 2 (9) n (%)
  CR, Mouth: 17 (41) n (%)
  CR, Skin: 10 (18) n (%)
  CR, Upper GI: 4 (40) n (%)
  ORR, Esophagus: 5 (42) n (%)
  ORR, Eyes: 25 (51) n (%)
  ORR, Joints and fascia: 33 (67) n (%)
  ORR, Liver: 2 (50) n (%)
  ORR, Lower GI: 5 (71) n (%)
  ORR, Lungs: 5 (22) n (%)
  ORR, Mouth: 24 (57) n (%)
  ORR, Skin: 23 (42) n (%)
  ORR, Upper GI: 4 (40) n (%)
  PR, Esophagus: 0 n (%)
  PR, Eyes: 19 (39) n (%)
  PR, Joints and fascia: 23 (47) n (%)
  PR, Liver: 0 n (%)
  PR, Lower GI: 1 (14) n (%)
  PR, Lungs: 3 (13) n (%)
  PR, Mouth: 7 (17) n (%)
  PR, Skin: 13 (24) n (%)
  PR, Upper GI: 0 n (%)
[2]; 200 mg QD
  CR, Esophagus: 9 (47) n (%)
  CR, Eyes: 8 (17) n (%)
  CR, Joints and fascia: 10 (20) n (%)
  CR, Liver: 2 (22) n (%)
  CR, Lower GI: 4 (67) n (%)
  CR, Lungs: 4 (17) n (%)
  CR, Mouth: 15 (50) n (%)
  CR, Skin: 8 (15) n (%)
  CR, Upper GI: 7 (54) n (%)
  ORR, Esophagus: 9 (47) n (%)
  ORR, Eyes: 16 (33) n (%)
  ORR, Joints and fascia: 38 (75) n (%)
  ORR, Liver: 3 (33) n (%)
  ORR, Lower GI: 4 (67) n (%)
  ORR, Lungs: 7 (29) n (%)
  ORR, Mouth: 16 (53) n (%)
  ORR, Skin: 18 (33) n (%)
  ORR, Upper GI: 8 (62) n (%)
  PR, Esophagus: 0 n (%)
  PR, Eyes: 8 (17) n (%)
  PR, Joints and fascia: 28 (55) n (%)
  PR, Liver: 1 (11) n (%)
  PR, Lower GI: 0 n (%)
  PR, Lungs: 3 (13) n (%)
  PR, Mouth: 1 (3) n (%)
  PR, Skin: 10 (18) n (%)
  PR, Upper GI: 1 (8) n (%)
[2]; 200 mg daily (n = 66)
  FFS at 6 mo (95% CI): 73 (61-83) %
  FFS at 12 mo (95% CI): 57 (44-68) %
  ORR: 49 (74) n (%)
  ORR for responses occurring within 6 mo of treatment: 47 (71) n (%)
  ORR for responses occurring within 12 mo of treatment: 49 (74) n (%)
[2]; 200 mg twice daily (n = 66)
  FFS at 6 mo (95% CI): 76 (63-84) %
  FFS at 12 mo (95% CI): 56 (43-67) %
  ORR: 51 (77) n (%)
  ORR for responses occurring within 6 mo of treatment: 48 (73) n (%)
  ORR for responses occurring within 12 mo of treatment: 50 (76) n (%)
[2]; Example 2
  2-year OS rate: 89%
  additional lung CRs based on NIH lung symptom score 1 to 0: 3 subjects
  best ORR in subjects refractory to their last lines of therapy: 75%
  initiation of a new systemic cGVHD therapy (failure event): 38%
  lung CR based on normalization of FEV1: 3 subjects
  median FEV1 increase for all subjects achieving lung PR: 10%
  median FEV1 increase in lung CR subjects: 23%
  nonrelapse mortality (NRM): 7%
  overall median time to response: 5 weeks
  relapse: 3%
  responses seen after 6 to 12 months of treatment: 9%
  skin responders with decrease in body surface area involvement: 15 subjects
  skin responders with decrease in sclerotic features: 11 subjects
  skin responders with improvement in both body surface area and sclerotic features: 13 subjects
  subjects with lung responses: 12 subjects
  subjects with skin responses: 41 subjects
[2]; Example 2, 200 mg daily
  best ORR: 74%
[2]; Example 2, 200 mg twice daily
  best ORR: 77%
[2]; Example 2, at 6 months
  overall FFS rate: 75%
[2]; Example 2, at 12 months
  overall FFS rate: 56%
[2]; Example 2, mITT
  ORRs in all subgroups: 61-85%
  best ORR in the esophagus: 45%
  best ORR in the eyes: 42%
  best ORR in the joints/fascia: 71%
  best ORR in the liver: 39%
  best ORR in the lower GI tract: 69%
  best ORR in the lungs: 26%
  best ORR in the mouth: 55%
  best ORR in the skin: 37%
  best ORR in the upper GI tract: 52%
[2]; Example 2, pooled arms
  ORR, subgroup with prior ibrutinib therapy: 74%
  ORR, subgroup with prior ruxolitinib therapy: 68%
[2]; Example 2, responder population
  median DOR: 54 weeks
[2]; Total
  CR, Esophagus: 14 (45) n (%)
  CR, Eyes: 14 (14) n (%)
  CR, Joints and fascia: 20 (20) n (%)
  CR, Liver: 4 (31) n (%)
  CR, Lower GI: 8 (62) n (%)
  CR, Lungs: 6 (13) n (%)
  CR, Mouth: 32 (44) n (%)
  CR, Skin: 18 (16) n (%)
  CR, Upper GI: 11 (48) n (%)
  ORR, Esophagus: 14 (45) n (%)
  ORR, Eyes: 41 (42) n (%)
  ORR, Joints and fascia: 71 (71) n (%)
  ORR, Liver: 5 (39) n (%)
  ORR, Lower GI: 9 (69) n (%)
  ORR, Lungs: 12 (26) n (%)
  ORR, Mouth: 40 (56) n (%)
  ORR, Skin: 41 (37) n (%)
  ORR, Upper GI: 12 (52) n (%)
  PR, Esophagus: 0 n (%)
  PR, Eyes: 27 (28) n (%)
  PR, Joints and fascia: 51 (51) n (%)
  PR, Liver: 1 (8) n (%)
  PR, Lower GI: 1 (8) n (%)
  PR, Lungs: 6 (13) n (%)
  PR, Mouth: 8 (11) n (%)
  PR, Skin: 23 (21) n (%)
  PR, Upper GI: 1 (4) n (%)
[2]; Total (N = 132)
  FFS at 6 mo (95% CI): 75 (66-81) %
  FFS at 12 mo (95% CI): 56 (47-64) %
  ORR: 100 (76) n (%)
  ORR for responses occurring within 6 mo of treatment: 95 (72) n (%)
  ORR for responses occurring within 12 mo of treatment: 99 (75) n (%)
[2]; [3]
  CR: 2 (3) n (%)
  PR: 45 (68) n (%)
[2]; [4]
  CR: 1 (2) n (%)
  PR: 47 (71) n (%)
[2]; [5]
  CR: 3 (2) n (%)
  PR: 92 (70) n (%)
[2]; [6]
  CR: 4 (6) n (%)
  PR: 45 (68) n (%)
[2]; [7]
  CR: 2 (3) n (%)
  PR: 48 (73) n (%)
[2]; [8]
  CR: 6 (5) n (%)
  PR: 93 (71) n (%)
